US20240092758A1, “IMIDAZOLO INDAZOLE COMPOUNDS AS JAK INHIBITORS” (Theravance Biopharma R&D IP, LLC, priority 2021, published 2024)

How the values were obtained:
[1] = system: IL-13 induced STAT6 phosphorylation in BEAS-2B human lung epithelial cells; assay: Cellular JAKI potency assay (BEAS-2B); type: cell-based; conditions: Homo sapiens, BEAS-2B, BEAS-2B cells, read-out: BEAS2B pIC50 (converted)
Outline: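 BEAS-2B cells were preincubated with compound (0.1% DMSO) in HBSS/HEPES/BSA for 1 h at 37 °C, then stimulated with IL-13 (80 ng/mL before addition) for 30 min. After lysis, pSTAT6 (Tyr641) was quantified by AlphaLISA SureFire; IC50 from a 4-parameter fit of percent inhibition, reported as pIC50.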

JAK1 = JAK1 (Homo sapiens (Human), UniProt P23458); assay: Biochemical JAK kinase assay (LanthaScreen), JAK1; conditions: for Ki: read-out: JAK1 pKi (converted)
Outline: (§1)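 LanthaScreen format: phospho-STAT1 (pTyr701) detected with 2 nM Tb antibody after 10 mM EDTA quench. Kinase step used Km-level ATP and 200 nM STAT1 peptide, 1 h at ambient after 1 h pre-incubation. Inhibition fitted to IC50, reported as pKi.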

TYK2 = TYK2 (Homo sapiens (Human), UniProt P29597); assay: Biochemical JAK kinase assay (LanthaScreen), Tyk2; conditions: read-out: Tyk2 pKi (converted)
Outline: as §1

JAK2 = JAK2 (Homo sapiens (Human), UniProt O60674); assay: Biochemical JAK kinase assay (LanthaScreen), JAK2; conditions: for Ki: read-out: JAK2 pKi (converted)
Outline: as §1

JAK3 = JAK3 (Homo sapiens (Human), UniProt P52333); assay: Biochemical JAK kinase assay (LanthaScreen), JAK3; conditions: read-out: JAK3 pKi (converted)
Outline: as §1

[2] = Pharmacokinetics in plasma and lung in mouse after oral aspiration administration; type: in vivo; conditions: male CD1 mice; for Lung Tissue AUC(0-24) / AUC(0-t): 0.2 mg/mL, two 25 μL increments; for Lung Tissue:Plasma AUC ratio: lung AUC to plasma AUC; for AUC(0-t): mouse, inhaled or intranasal, 0.01 mg/mouse, plasma, read-out: Plasma AUC(0-24)
Outline: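 Male CD1 mice given 0.2 mg/mL compound in 20% propylene glycol/pH 4 citrate buffer, two 25 μL increments by oral aspiration into the trachea under isoflurane. Plasma and lung homogenate sampled 0.167–24 hr and measured by LC-MS/MS. Non-compartmental analysis gave AUC(0-inf); lung-to-plasma ratio from lung (μg*hr/g) over plasma (μg*hr/mL) AUC.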

Sequence of JAK1 (P23458 whole entry): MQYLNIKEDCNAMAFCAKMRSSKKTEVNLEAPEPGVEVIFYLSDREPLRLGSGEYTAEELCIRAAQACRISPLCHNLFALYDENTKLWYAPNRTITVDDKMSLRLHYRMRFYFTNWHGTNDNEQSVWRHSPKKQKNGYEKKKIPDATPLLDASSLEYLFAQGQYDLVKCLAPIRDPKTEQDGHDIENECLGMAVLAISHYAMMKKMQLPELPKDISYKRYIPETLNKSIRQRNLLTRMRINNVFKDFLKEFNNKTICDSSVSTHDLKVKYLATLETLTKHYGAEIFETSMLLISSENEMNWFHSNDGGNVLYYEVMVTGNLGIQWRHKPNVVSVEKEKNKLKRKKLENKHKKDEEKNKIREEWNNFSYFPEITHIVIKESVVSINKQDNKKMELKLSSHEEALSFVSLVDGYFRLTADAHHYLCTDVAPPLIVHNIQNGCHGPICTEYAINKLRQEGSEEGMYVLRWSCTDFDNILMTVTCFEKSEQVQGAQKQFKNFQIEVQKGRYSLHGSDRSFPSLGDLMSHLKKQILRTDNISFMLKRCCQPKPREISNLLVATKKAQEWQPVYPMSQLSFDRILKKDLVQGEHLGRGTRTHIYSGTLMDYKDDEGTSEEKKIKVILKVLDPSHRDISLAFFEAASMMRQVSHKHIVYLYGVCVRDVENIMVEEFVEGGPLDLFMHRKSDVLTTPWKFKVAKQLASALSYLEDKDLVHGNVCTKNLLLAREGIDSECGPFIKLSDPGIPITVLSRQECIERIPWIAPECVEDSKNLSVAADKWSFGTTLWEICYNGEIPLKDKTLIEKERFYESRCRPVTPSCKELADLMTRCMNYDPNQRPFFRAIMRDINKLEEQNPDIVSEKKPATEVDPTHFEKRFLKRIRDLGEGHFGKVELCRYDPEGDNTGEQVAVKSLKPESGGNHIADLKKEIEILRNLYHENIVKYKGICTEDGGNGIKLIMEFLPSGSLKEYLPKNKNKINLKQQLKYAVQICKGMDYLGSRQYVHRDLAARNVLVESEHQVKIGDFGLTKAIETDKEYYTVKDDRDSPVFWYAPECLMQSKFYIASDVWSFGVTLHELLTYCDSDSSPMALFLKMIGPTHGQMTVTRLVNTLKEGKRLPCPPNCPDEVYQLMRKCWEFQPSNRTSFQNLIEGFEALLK
Sequence of JAK3 (P52333 whole entry): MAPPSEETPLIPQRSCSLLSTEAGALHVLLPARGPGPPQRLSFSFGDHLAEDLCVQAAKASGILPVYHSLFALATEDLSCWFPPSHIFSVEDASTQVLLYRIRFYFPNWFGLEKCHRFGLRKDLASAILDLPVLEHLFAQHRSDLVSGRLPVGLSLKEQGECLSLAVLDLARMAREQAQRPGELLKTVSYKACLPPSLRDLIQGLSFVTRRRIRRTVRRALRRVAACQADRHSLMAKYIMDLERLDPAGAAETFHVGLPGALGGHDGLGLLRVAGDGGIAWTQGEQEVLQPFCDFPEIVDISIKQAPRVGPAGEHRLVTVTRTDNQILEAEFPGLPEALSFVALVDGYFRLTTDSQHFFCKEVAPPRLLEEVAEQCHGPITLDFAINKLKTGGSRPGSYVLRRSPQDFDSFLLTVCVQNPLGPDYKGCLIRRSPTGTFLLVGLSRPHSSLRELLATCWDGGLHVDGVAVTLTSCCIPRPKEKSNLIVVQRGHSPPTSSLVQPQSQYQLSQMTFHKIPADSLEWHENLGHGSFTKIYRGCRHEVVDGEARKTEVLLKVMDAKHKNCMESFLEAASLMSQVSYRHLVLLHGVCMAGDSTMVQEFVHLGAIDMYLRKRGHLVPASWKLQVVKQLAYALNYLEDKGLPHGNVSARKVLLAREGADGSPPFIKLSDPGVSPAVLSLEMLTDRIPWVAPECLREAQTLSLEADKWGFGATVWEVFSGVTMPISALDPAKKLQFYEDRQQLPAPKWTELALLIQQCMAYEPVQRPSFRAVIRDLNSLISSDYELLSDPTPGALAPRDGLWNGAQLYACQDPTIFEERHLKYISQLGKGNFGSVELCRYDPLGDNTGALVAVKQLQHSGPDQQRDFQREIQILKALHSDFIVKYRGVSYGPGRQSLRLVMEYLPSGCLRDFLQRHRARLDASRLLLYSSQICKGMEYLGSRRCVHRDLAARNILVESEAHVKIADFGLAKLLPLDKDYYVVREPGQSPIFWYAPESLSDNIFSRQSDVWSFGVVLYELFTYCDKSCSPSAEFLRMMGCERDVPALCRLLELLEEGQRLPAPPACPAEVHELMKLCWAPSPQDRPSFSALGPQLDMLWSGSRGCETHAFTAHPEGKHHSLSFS
Sequence of JAK2 (O60674 whole entry): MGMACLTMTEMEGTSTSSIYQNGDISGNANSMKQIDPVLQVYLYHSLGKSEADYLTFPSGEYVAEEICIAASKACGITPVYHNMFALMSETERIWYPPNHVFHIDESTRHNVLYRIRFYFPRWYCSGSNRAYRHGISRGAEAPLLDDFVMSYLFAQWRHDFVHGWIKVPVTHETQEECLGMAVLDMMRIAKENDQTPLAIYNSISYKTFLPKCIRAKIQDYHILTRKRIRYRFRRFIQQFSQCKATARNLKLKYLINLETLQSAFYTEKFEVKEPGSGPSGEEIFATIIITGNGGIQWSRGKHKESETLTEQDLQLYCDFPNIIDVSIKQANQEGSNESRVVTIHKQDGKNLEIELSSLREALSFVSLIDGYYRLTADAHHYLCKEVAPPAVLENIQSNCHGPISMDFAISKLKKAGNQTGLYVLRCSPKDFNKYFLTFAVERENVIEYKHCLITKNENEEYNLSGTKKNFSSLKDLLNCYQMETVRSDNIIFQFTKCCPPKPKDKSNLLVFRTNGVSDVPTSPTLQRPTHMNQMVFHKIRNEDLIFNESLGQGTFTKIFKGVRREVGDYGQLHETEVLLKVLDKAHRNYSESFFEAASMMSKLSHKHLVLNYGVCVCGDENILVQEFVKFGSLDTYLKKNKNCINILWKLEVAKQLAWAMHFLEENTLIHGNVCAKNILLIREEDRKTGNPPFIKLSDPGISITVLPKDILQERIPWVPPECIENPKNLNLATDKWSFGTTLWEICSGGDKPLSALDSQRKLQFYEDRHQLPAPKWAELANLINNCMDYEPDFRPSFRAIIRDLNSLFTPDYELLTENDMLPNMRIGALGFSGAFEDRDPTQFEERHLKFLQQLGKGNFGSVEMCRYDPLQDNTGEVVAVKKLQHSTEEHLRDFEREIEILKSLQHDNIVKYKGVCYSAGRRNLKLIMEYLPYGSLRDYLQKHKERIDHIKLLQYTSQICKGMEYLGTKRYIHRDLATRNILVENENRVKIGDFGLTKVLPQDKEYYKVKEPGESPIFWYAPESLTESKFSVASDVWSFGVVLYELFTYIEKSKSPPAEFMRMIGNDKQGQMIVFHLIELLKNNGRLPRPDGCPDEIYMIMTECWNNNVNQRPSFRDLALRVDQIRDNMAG
Sequence of TYK2 (P29597 whole entry): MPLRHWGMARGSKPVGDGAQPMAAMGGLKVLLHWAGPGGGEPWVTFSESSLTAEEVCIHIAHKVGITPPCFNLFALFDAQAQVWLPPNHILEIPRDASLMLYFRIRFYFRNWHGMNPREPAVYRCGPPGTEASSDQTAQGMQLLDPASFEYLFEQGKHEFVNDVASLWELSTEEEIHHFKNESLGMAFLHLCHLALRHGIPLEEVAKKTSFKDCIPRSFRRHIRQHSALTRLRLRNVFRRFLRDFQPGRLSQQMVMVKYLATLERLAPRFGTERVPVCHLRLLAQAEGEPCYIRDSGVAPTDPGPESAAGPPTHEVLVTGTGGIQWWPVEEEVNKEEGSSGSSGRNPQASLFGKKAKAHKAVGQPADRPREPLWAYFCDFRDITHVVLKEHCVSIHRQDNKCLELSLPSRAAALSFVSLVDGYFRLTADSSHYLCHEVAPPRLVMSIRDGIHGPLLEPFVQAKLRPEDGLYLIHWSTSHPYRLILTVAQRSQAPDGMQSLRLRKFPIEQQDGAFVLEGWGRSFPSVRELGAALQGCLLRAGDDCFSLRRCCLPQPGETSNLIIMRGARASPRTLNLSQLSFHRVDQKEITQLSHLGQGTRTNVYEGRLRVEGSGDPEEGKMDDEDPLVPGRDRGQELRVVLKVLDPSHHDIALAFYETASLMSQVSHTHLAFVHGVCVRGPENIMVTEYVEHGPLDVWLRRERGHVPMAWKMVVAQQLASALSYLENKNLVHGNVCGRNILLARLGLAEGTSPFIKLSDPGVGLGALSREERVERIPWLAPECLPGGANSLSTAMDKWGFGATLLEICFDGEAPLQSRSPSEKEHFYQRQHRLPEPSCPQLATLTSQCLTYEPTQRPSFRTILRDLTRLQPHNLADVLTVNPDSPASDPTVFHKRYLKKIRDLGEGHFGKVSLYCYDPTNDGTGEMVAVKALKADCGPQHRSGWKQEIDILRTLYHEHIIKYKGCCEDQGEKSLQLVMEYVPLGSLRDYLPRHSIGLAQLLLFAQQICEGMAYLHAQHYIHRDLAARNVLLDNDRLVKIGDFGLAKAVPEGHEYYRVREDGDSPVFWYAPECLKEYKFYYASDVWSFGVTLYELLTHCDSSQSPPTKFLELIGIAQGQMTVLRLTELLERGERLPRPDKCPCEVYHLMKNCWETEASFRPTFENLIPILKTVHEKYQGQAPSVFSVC

Compound | IC50 [1] [nM] | Ki (JAK1) [nM] | Ki (TYK2) [nM] | JAK2 pKi (JAK2) | Ki (JAK3) [nM] | Lung Tissue AUC(0-24) [2] | Lung Tissue:Plasma AUC ratio [2] | AUC(0-t) [2] [ng·h/mL] | JAK1 pKi (JAK1) | Ki (JAK2) [nM]
CCc1cc(O)ccc1-c1ccc2c(-c3nc(C4=CC5COCC(C4)N5)c[nH]3)n[nH]c2c1 (centres unmarked) [Compound 7, 4-(3-(4-(3-oxa-9-azabicyclo[3.3.1]non-6-en-7-yl)-1H-imidazol-2-yl)-1H-indazol-6-yl)-3-ethylphenol] | 10 to 31.6 | 0.1 to 1 | 1 to 10 | A (A represents a pKi value ≥10 (Ki≤0.1 nM)) | 0.1 to 1 | B (B denotes a value between 50 and 100) | C (C denotes a ratio between 100 and 200) | < 500 |  | 
CCc1cc(O)ccc1-c1ccc2c(-c3nc(C4=C[C@H](CO)NC4)c[nH]3)n[nH]c2c1F [Compound 8, (R)-3-ethyl-4-(7-fluoro-3-(4-(5-(hydroxymethyl)-2,5-dihydro-1H-pyrrol-3-yl)-1H-imidazol-2-yl)-1H-indazol-6-yl)phenol] | 10 to 31.6 | 0.1 to 1 | 1 to 10 | A (A represents a pKi value ≥10 (Ki≤0.1 nM)) | 0.1 to 1 | B (B denotes a value between 50 and 100) | C (C denotes a ratio between 100 and 200) | 500 to 1000 |  | 
CCc1cc(O)ccc1-c1ccc2c(-c3nc(C4=C[C@H](COC)NC4)c[nH]3)n[nH]c2c1F [Compound 9, (R)-3-ethyl-4-(7-fluoro-3-(4-(5-(methoxymethyl)-2,5-dihydro-1H-pyrrol-3-yl)-1H-imidazol-2-yl)-1H-indazol-6-yl)phenol] | 3.16 to 10 |  | 10 to 100 |  | 0.1 to 1 | C (C denotes a value between 9 and 50) | C (C denotes a ratio between 100 and 200) | < 500 | A (A represents a pKi value ≥10 (Ki≤0.1 nM)) | 0.1 to 1
CCc1cc(O)ccc1-c1ccc2c(-c3nc(C4=CCN(C5CN(C)C5)CC4)c[nH]3)n[nH]c2c1 [Compound 15, 3-ethyl-4-(3-(4-(1-(1-methylazetidin-3-yl)-1,2,3,6-tetrahydropyridin-4-yl)-1H-imidazol-2-yl)-1H-indazol-6-yl)phenol] | 10 to 31.6 | 0.1 to 1 | 1 to 10 | A (A represents a pKi value ≥10 (Ki≤0.1 nM)) | 0.1 to 1 | B (B denotes a value between 50 and 100) | C (C denotes a ratio between 100 and 200) | < 500 |  | 
CCc1cc(O)ccc1-c1ccc2c(-c3nc(C4=CCN(C[C@@H]5COCCN5)CC4)c[nH]3)n[nH]c2c1 [Compound 17, (R)-3-ethyl-4-(3-(4-(1-(morpholin-3-ylmethyl)-1,2,3,6-tetrahydropyridin-4-yl)-1H-imidazol-2-yl)-1H-indazol-6-yl)phenol] | 3.16 to 10 | 0.1 to 1 | 1 to 10 |  | 0.1 to 1 | B (B denotes a value between 50 and 100) | C (C denotes a ratio between 100 and 200) | 500 to 1000 |  | 0.1 to 1
CCc1cc(O)ccc1-c1ccc2c(-c3nc(C4=CCN(C)CC4)c[nH]3)n[nH]c2c1F [Example 21] | 3.16 to 10 |  | 0.1 to 1 | A (A represents a pKi value ≥10 (Ki≤0.1 nM)) | 0.1 to 1 | C (C denotes a value between 9 and 50) | D (D denotes a ratio between 50 and 100) | < 500 | A (A represents a pKi value ≥10 (Ki≤0.1 nM)) | 
CCc1cc(O)ccc1-c1ccc2c(-c3nc(C4=CCN(C(C)C)CC4)c[nH]3)n[nH]c2c1F [Example 22] | 3.16 to 10 | 0.1 to 1 | 1 to 10 | A (A represents a pKi value ≥10 (Ki≤0.1 nM)) | 0.1 to 1 | C (C denotes a value between 9 and 50) | D (D denotes a ratio between 50 and 100) | < 500 |  | 
